Results from paper PMC6716272, “In Vivo and In Vitro Analyses of Novel Peptidomimetic Disruptors for the Serotonin 5-HT2C Receptor Interaction With Phosphatase and Tensin Homolog” (Frontiers in Pharmacology, 2019).

Legend:
[1] = system: cocaine–saline-trained rats; experiment: Two-lever drug discrimination, cocaine (5 mg/kg) vs saline; format: in vivo, rat; settings: for cocaine-lever responding, pretreatment before cocaine (2.5 mg/kg): lorcaserin 1 mg/kg (30 min) or SB242084 0.5 mg/kg (45 min) before test; for cocaine-lever responding in substitution test / response rate in substitution test: SB242084 0.5 mg/kg; for cocaine-lever responding in substitution test: cocaine 2.5 mg/kg, i.p.
Description: (§1) Experimentally naïve male Sprague-Dawley rats (n = 43; Envigo, Inc.) weighing 300–325 g at the beginning of the experiment were housed two per cage in a temperature- (21–23°C) and humidity- (45–50%) controlled environment; lighting was maintained under a 12-h light–dark cycle (0700–1900 h). Rats were maintained at 80–90% of their free-feeding weights by restricting access to water. Rats received water during daily training sessions (5–6 ml/rat/session), in the afternoon several hours after training (20 min), and over the weekend (36 h). Experiments were conducted during the light phase of the light–dark cycle (between 0900 and 1200 h) and were carried out in accordance with the National Institutes of Health Guide for the Care and Use of Laboratory Animals and with the approval of the Institutional Animal Care and Use Committee at University of Texas Medical Branch.
(§2) The procedures were conducted in commercially available two-lever operant chambers (Med Associates, St. Albans, VT). Each chamber was equipped with a water-filled dispenser mounted equidistantly between two retractable response levers on the wall and housed in a light- and soundproof cubicle. Illumination came from a 28-V house light; ventilation and masking noise were provided by a ventilation fan in the right-side wall. A computer with Med-PC IV software was used to run programs and record all experimental events.
(§3) Standard two-lever, water-reinforced drug discrimination procedures were used ([Appel and Cunningham, 1986]; [Callahan and Cunningham, 1995]; [Colpaert, 1999]). Three cohorts (n = 13–16/cohort) were trained to discriminate an injection of a training drug from saline (1.0 ml/kg, i.p.) administered 15 min before start of daily (Monday–Friday) training sessions. In one cohort (n = 14), rats were trained to discriminate the training drug lorcaserin (0.75 mg/kg, 1.0 ml/kg, i.p.) from saline. In a second cohort (n = 13), rats were trained to discriminate the training drug WAY163909 (0.75 mg/kg, 1.0 ml/kg, i.p.) from saline. In the third cohort, rats (n = 16) were trained to discriminate the training drug cocaine (5 mg/kg, 1.0 ml/kg, i.p.) from saline. Two rats in the lorcaserin–saline cohort were excluded from the present study due to failure to maintain the discrimination. Rats in the WAY163909–saline cohort also participated in additional studies ([Wild et al., 2018]); the WAY163909 dose–response curve was reevaluated between studies; a washout period was allowed, and no carryover effects were observed.
(§4) During this phase, only the stimulus-appropriate (drug or saline) lever was present. Training began under a fixed ratio 1 (FR 1) schedule of water reinforcement, and the FR requirement was incremented until all animals were responding reliably under an FR 20 schedule for each experimental condition. For half of the rats, left lever responses were reinforced after training drug administration, whereas right lever responses were reinforced after saline administration; conditions were reversed for the remaining animals. During this phase of training, drug and saline were administered irregularly with the restriction that neither condition prevailed for more than three consecutive sessions.
(§5) After responding stabilized, both levers were presented simultaneously during 15-min training sessions. The rats were required to respond on the stimulus-appropriate (correct) lever to obtain water reinforcement. There were no programmed consequences for responding on the incorrect lever. This phase of training continued until the performance of all rats attained criterion (defined as mean accuracies of at least 80% stimulus-appropriate responding for 10 consecutive sessions).
(§6) Test sessions were initiated and conducted once or twice per week following attainment of criterion. Training sessions were run during the intervening days to maintain discrimination accuracy. […]

PTEN = PTEN lipid phosphatase activity assay (competitive ELISA for PI(4,5)P2); format: biochemical; settings: 15 min preincubation 37°C with 1 ng/µl PTEN, then 4 µM PI(3,4,5)P3 2.25 h, two independent experiments in triplicate
Description: Lipid phosphatase activity of PTEN was quantified using a PTEN activity ELISA kit (K-4700, Echelon Biosciences, Salt Lake City, UT) following the manufacturer’s protocol. Briefly, 1 ng/µl PTEN enzyme (E-3000, Echelon Bioscience) was incubated with PTEN inhibitor SF1670 (200 µM), 1, 2, and 2 derivatives (10 µM) for 15 min at 37°C. Then, PI(3,4,5)P3 substrate was added for a final concentration of 4 µM, and the reaction was incubated at 37°C for 2.25 h. The lipid phosphatase activity of PTEN was quantified by measuring the amount of PI(4,5)P2 by competitive ELISA in which final absorbance is inversely related to the amount of PI(4,5)P2. The absorbance was measured by FlexStation3 at 450 nm (Molecular Devices). Results are represented as fold change over PTEN + PI(3,4,5)P3 alone (mean ± SD) of two independent experiments run in technical triplicates and analyzed by one-way ANOVA with a priori comparison with PTEN + PI(3,4,5)P3 alone (Dunnett’s; GraphPad Prism 7.02). All statistical analyses were conducted with an experiment-wise error rate of α = 0.05.

[2] = system: lorcaserin–saline-trained rats; experiment: Two-lever drug discrimination, lorcaserin (0.75 mg/kg) vs saline; format: in vivo, rat
Description: as §1, §2, §3, §4, §5, §6

[3] = system: WAY163909–saline-trained rats; experiment: Two-lever drug discrimination, WAY163909 (0.75 mg/kg) vs saline; format: in vivo, rat
Description: as §1, §2, §3, §4, §5, §6

[4] = system: human unedited 5-HT2CR (h5-HT2CR-CHO cells); format: cell-based; settings: for EMAX (%5-HT): maximum 5-HT-induced Cai2+ release in presence of 1 nM peptide derivative, 5-HT vehicle, 10^-11 to 10^-6 M, 5-HT alone = 100%, AUC normalised to crystal violet, mean ± SEM of 4–5 biological replicates, SEM; for change of 5-HT EC50 / potency versus 5-HT alone: pretreatment with 1 nM peptide; for elevation of the maximum Cai2+ release induced by 5-HT: pretreatment with peptide (1 nM), p < 0.05
[5] = system: human unedited 5-HT2CR (h5-HT2CR-CHO cells); settings: ref Anastasio et al., 2013; cited from earlier work
Source text: Agonist binding to the 5-HT2CR results in dynamic changes in receptor conformation and induction of a variety of intracellular signaling pathways ([Berg et al., 1994]; [McGrew et al., 2002]; [Werry et al., 2005]; [Labasque et al., 2008]). Best characterized is coupling of the 5-HT2CR to Gαq/11 proteins to activate phospholipase Cβ (PLCβ), resulting in increased intracellular calcium (Cai ^2+) release, among various other signaling outcomes ([Millan et al., 2008]). One approach to selectively target the 5-HT2CR signaling is through protein–protein interactions that are selective for 5-HT2CR ove ...

[6] = vs previous cocaine maintenance session, lorcaserin 1 mg/kg, p < 0.05

Cc1cc2c(cc1Cl)N(C(=O)Nc1ccc(Oc3cccnc3C)nc1)CC2 [SB242084]
lorcaserin (1 mg/kg)-mediated suppression of cocaine (2.5 mg/kg) lever responding and response rate after SB242084 pretreatment ([1]; SB242084 0.5 mg/kg + lorcaserin 1 mg/kg + cocaine 2.5 mg/kg): fully recovered
cocaine-lever responding, pretreatment before cocaine (2.5 mg/kg) ([1]; combination test): did not alter cocaine lever-responding or response rate
cocaine-lever responding in substitution test ([1]; lorcaserin 1 mg/kg): engendered primarily saline-lever responding
response rate in substitution test [1, 6]: slight but significant increase in response rate

CC(C)(C)C(=O)Nc1ccc2c(c1)C(=O)C(=O)c1ccccc1-2 [SF1670]
PTEN lipid phosphatase activity (PTEN; 200 µM inhibitor): suppresses PTEN lipid phosphatase activity

c1cc2c3c(c1)[C@H]1CCC[C@H]1N3CCNC2 [WAY163909, (7b-R,10a-R)-1,2,3,4,8,9,10,10a-octahydro-7bH-cyclopenta[b][1,4] diazepino [6,7,1hi] indole]
substitution for lorcaserin ([2]; substitution test, WAY163909 0.75 mg/kg i.p., full substitution = ≥80% drug-appropriate responding): full substitution
response rate in substitution test ([2]; vs previous lorcaserin maintenance session, WAY163909 0.75 mg/kg, TAT-r3L4F 2 µmol/kg (trend for 1 µmol/kg)): suppressed response rates similar to the training drug
ED50 (WAY163909-lever responding) ([3]; i.p., 15 min before test, 95% CI 0.51–0.61 mg/kg): 0.56 mg/kg
response rates after training drug versus saline ([3]; training sessions, WAY163909 0.75 mg/kg i.p., p < 0.05): lower than rates after saline

COC(=O)[C@H]1[C@@H](OC(=O)c2ccccc2)C[C@@H]2CC[C@H]1N2C [cocaine]
cocaine-lever responding in substitution test ([1]; lorcaserin 1 mg/kg): full substitution
response rates after training drug ([1]; training sessions, cocaine 5 mg/kg i.p., not statistically different from saline): 25.6 ± 0.55 min⁻¹

C[C@H]1CNCCc2ccc(Cl)cc21 [lorcaserin, (1R)-8-chloro-2,3,4,5-tetrahydro-1-methyl-1H-3 benzazepine]
ED50 ([2]; Rattus norvegicus, read-out: ED50 (dose predicted to elicit 50% lorcaserin-lever responding)): 0.54 mg/kg
response rates after training drug versus saline ([2]; training sessions, lorcaserin 0.75 mg/kg i.p., p < 0.05): lower than rates after saline
response rate in substitution test ([3]; lorcaserin 1 mg/kg (vs saline), TAT-r3L4F 1, 2 µmol/kg (vs previous WAY163909 maintenance session)): suppressed response rates versus saline
substitution for WAY163909 ([3]; substitution test, lorcaserin 1 mg/kg i.p.): full substitution
lever responding in substitution test (low-dose series) ([1]; TAT-r3L4F alone 1, 2 µmol/kg, lorcaserin alone 0.5 mg/kg, data not shown): saline-appropriate responding
full substitution evoked by cocaine (2.5 mg/kg) after lorcaserin (0.5 mg/kg) alone ([1]; combination test, lorcaserin 0.5 mg/kg + cocaine 2.5 mg/kg): not suppressed
cocaine-lever responding, pretreatment before cocaine (2.5 mg/kg) ([1]; combination test): significantly reduced cocaine lever-appropriate responding
response rate, pretreatment before cocaine (2.5 mg/kg) ([1]; combination test, lorcaserin 1 mg/kg, p < 0.05): significantly reduced
behavioral disruption (failure to complete FR 20) ([1]; lorcaserin 1 mg/kg i.p. alone, two rats failed to complete the FR 20 schedule): induces behavioral disruption
cocaine-lever responding in substitution test ([1]; lorcaserin 1 mg/kg): engendered primarily saline-lever responding
response rates associated with cocaine (2.5 mg/kg) ([1]; lorcaserin alone 0.5 mg/kg, or TAT-r3L4F 1, 2 µmol/kg plus lorcaserin 0.5 mg/kg, p < 0.05): significantly suppressed the response rates
response rate in substitution test (low-dose series) ([1]; vs previous cocaine maintenance session, TAT-r3L4F alone 1, 2 µmol/kg, lorcaserin alone 0.5 mg/kg, data not shown): significant reduction in response rates
response rate in substitution test [1, 6]: significant reduction in response rate

(S)-1-((S)-4-amino-2-((3S,4S)-4-((S)-1-((S)-1-carboxy-4-guanidinobutylamino)-1-oxo-propan-2-ylcarbamoyl)pyrrolidine-3-carboxamido)-4-oxobutanoyl)pyrrolidine-2-carboxylic acid [compound 7]
potentiation of 5-HT-induced Cai2+ release (in words) ([4]; 1 nM peptide, Welch's t-test vs 5-HT alone, α = 0.05): potentiated
EMAX (%5-HT) [4]: 125 ± 5.2%
drug-lever responding in combination with lorcaserin (0.5 mg/kg) ([2]; combination test, i.p., TAT-r3L4F 2 µmol/kg (p < 0.05), peptide 7 2, 5 µmol/kg): modestly, but not significantly, enhanced
response rate in combination with lorcaserin (0.5 mg/kg) ([2]; combination test, i.p., TAT-r3L4F 2 µmol/kg, peptide 7 2, 5 µmol/kg): no change in rate
drug-like responding ([2]; substitution test, i.p., TAT-r3L4F 1, 2 µmol/kg, peptide 7 1, 2, 5 µmol/kg (data not shown)): < 20%

Ac-PNQDQNAR-NH2 [compound 2, shorter eight amino acid version of h3L4F]
EMAX (%5-HT) [4]: 118 ± 4.0%
change of 5-HT EC50 / potency versus 5-HT alone [4]: no change in EC50
elevation of the maximum Cai2+ release induced by 5-HT [4]: ~20%
PTEN lipid phosphatase activity (PTEN; 10 µM peptide): do not suppress PTEN lipid phosphatase activity
effect on 5-HT2CR agonist-mediated Cai2+ release [5]: enhance

Ac-PNQDQNARRRKKKERR-NH2 [h3L4F, 16 amino acid peptide homologous to a fragment of the third intracellular loop of the human 5-HT2CR]
EMAX (%5-HT) [4]: 131 ± 6.3%
change of 5-HT EC50 / potency versus 5-HT alone [4]: no change in EC50
elevation of the maximum Cai2+ release induced by 5-HT [4]: ~30%
PTEN lipid phosphatase activity (PTEN; 10 µM peptide): do not suppress PTEN lipid phosphatase activity
effect on 5-HT2CR agonist-mediated Cai2+ release [5]: enhance
